Results as given in US6090834A, “Substituted oxazoles for the treatment of inflammation” (G.D. Searle & Co., priority 1998, dated 2000).

Assays:
carrageenan foot edema = assay: Rat Carrageenan Foot Pad Edema Test; assay type: in vivo, Male Sprague-Dawley rats; settings: oral, 3 h after carrageenan; for inhibition in vivo at 10 mg/kg: Rattus norvegicus, 10 mg/kg body weight, read-out: RAT PAW EDEMA % Inhibition @ 10 mg/kg body weight
Description: Rat Carrageenan Foot Pad Edema Test
Male Sprague-Dawley rats were selected in each group so that the average body weight was as close as possible. Rats were fasted with free access to water for over sixteen hours prior to the test. […] One hour later a subplantar injection of 0.1 mL of 1% solution of carrageenan/sterile 0.9% saline was administered and the volume of the injected foot was measured with a displacement plethysmometer connected to a pressure transducer with a digital indicator. Three hours after the injection of the carrageenan, the volume of the foot was again measured.

COX-2 = COX-2 activity in vitro (PGE2 formed, ELISA); assay type: biochemical, human or murine; settings: recombinant enzyme, arachidonic acid 10 μM, pH 8.0; read-out: COX II ID50
Description: (§1) Evaluation of COX I and COX II activity in vitro
(§2) The COX-2 inhibition activity of the compounds of this invention illustrated in the Examples was determined by the following methods. a. Preparation of recombinant COX baculoviruses
(§3) Recombinant COX-1 and COX-2 were prepared as described by Gierse et al, [J. Biochem., 305, 479-84 (1995)]. A 2.0 kb fragment containing the coding region of either human or murine COX-1 or human or murine COX-2 was cloned into a BamH1 site of the baculovirus transfer vector pVL1393 (Invitrogen) to generate the baculovirus transfer vectors for COX-1 and COX-2 in a manner similar to the method of D. R. O'Reilly et al (Baculovirus Expression Vectors: A Laboratory Manual (1992)). Recombinant baculoviruses were isolated by transfecting 4 μg of baculovirus transfer vector DNA into SF9 insect cells (2×10^8) along with 200 ng of linearized baculovirus plasmid DNA by the calcium phosphate method. See M. D. Summers and G. E. Smith, A Manual of Methods for Baculovirus vectors and Insect Cell Culture Procedures, Texas Agric. Exp. Station Bull. 1555 (1987). Recombinant viruses were purified by three rounds of plaque purification and high titer (10^7 -10^8 pfu/ml) stocks of virus were prepared. For large scale production, SF9 insect cells were infected in 10 liter fermentors (0.5×10^6 /ml) with the recombinant baculovirus stock such that the multiplicity of infection was 0.1. After 72 hours the cells were centrifuged and the cell pellet homogenized in Tris/Sucrose (50 mM: 25%, pH 8.0) containing 1% 3-[(3-cholamidopropyl)dimethylammonio]-1-propanesulfonate (CHAPS). The homogenate was centrifuged at 10,000×G for 30 minutes, and the resultant supernatant was stored at -80° C. before being assayed for COX activity. […]
(§4) b. Assay for COX-1 and COX-2 activity
(§5) COX activity was assayed as PGE2 formed/μg protein/time using an ELISA to detect the prostaglandin released. CHAPS-solubilized insect cell membranes containing the appropriate COX enzyme were incubated in a potassium phosphate buffer (50 mM, pH 8.0) containing epinephrine, phenol, and heme with the addition of arachidonic acid (10 μM). Compounds were pre-incubated with the enzyme for 10-20 minutes prior to the addition of arachidonic acid. Any reaction between the arachidonic acid and the enzyme was stopped after ten minutes at 37° C./room temperature by transferring 40 μl of reaction mix into 160 μl ELISA buffer and 25 μM indomethacin. The PGE2 formed was measured by standard ELISA technology (Cayman Chemical).

COX-1 = COX-1 activity in vitro (PGE2 formed, ELISA); assay type: biochemical, human or murine; settings: recombinant enzyme, arachidonic acid 10 μM, pH 8.0; read-out: COX-1 ID50
Description: as §1, §2, §3, §4, §5

[1] = test system: hyperalgesic foot withdrawal; assay: Rat Carrageenan-induced Analgesia Test; assay type: in vivo, Male Sprague-Dawley rats; settings: oral, hyperalgesic foot withdrawal 3 h after carrageenan
Description: Rat Carrageenan-induced Analgesia Test
The analgesia test using rat carrageenan was performed with materials, reagents and procedures essentially as described by Hargreaves, et al., (Pain, 32, 77 (1988)). Male Sprague-Dawley rats were treated as previously described for the Carrageenan Foot Pad Edema test. Three hours after the injection of the carrageenan, the rats were placed in a special plexiglass container with a transparent floor having a high intensity lamp as a radiant heat source, positionable under the floor. After an initial twenty minute period, thermal stimulation was begun on either the injected foot or on the contralateral uninjected foot. A photoelectric cell turned off the lamp and timer when light was interrupted by paw withdrawal. The time until the rat withdraws its foot was then measured. The withdrawal latency in seconds was determined for the control and drug-treated groups, and percent inhibition of the hyperalgesic foot withdrawal determined.

IC50 (COX-2) [nM]	IC50 (COX-1) [µM]	Structure (SMILES)	inhibition in vivo at 10 mg/kg (carrageenan foot edema) [%]	further results
< 100	> 10	CS(=O)(=O)c1ccc(-c2oc(-c3ccccc3)nc2-c2ccc(F)cc2)cc1 [Example 3, 4-(4-Fluorophenyl)-5-[4-(methylsulfonyl)phenyl]-2-phenyloxazole]	30	
		CC(C)(C)c1nc(-c2ccc(F)cc2)c(-c2ccc(S(C)(=O)=O)cc2)o1 [Example 7, 2-(Tert-butyl)-4-(4-fluorophenyl)-5-[4-(methylsulfonyl)phenyl]oxazole]	24	
		COc1ccc(Cc2nc(-c3ccc(F)cc3)c(-c3ccc(S(C)(=O)=O)cc3)o2)cc1 [Example 8, 4-(4-Fluorophenyl)-2-(4-methoxyphenyl)methyl-5-[4-methylsulfonylphenyl]oxazole]	12	
		CS(=O)(=O)c1ccc(-c2oc(C(c3ccccc3)c3ccccc3)nc2-c2ccc(F)cc2)cc1 [Example 10, 2-Diphenylmethyl-4-(4-fluorophenyl)-5-[4-methylsulfonylphenyloxazole]]	18	
		CCOC(=O)Cc1nc(-c2ccc(F)cc2)c(-c2ccc(S(C)(=O)=O)cc2)o1 [Example 11]	42	
		CS(=O)(=O)c1ccc(-c2oc(CC(=O)O)nc2-c2ccc(F)cc2)cc1 [Example 16, 2-[4-(4-Fluorophenyl)-5-[4-(methylsulfonyl)phenyl]oxazol-2-yl]acetic acid]	26	
		CS(=O)(=O)c1ccc(-c2oc(COc3ccccc3)nc2-c2ccc(F)cc2)cc1 [Example 28, 4-(4-fluorophenyl)-5-[4-(methylsulfonyl)-phenyl]-2-phenoxymethyloxazole]	2	
< 100	> 100	CS(=O)(=O)c1ccc(-c2oc(COc3cccc(Cl)c3)nc2-c2ccc(F)cc2)cc1 [Example 30, 4-(4-fluorophenyl)-5-[4-(methylsulfonyl)phenyl]-2-(3-chlorophenoxy)methyloxazole]	4	
< 100	> 100	CS(=O)(=O)c1ccc(-c2oc(COc3ccc(F)cc3)nc2-c2ccc(F)cc2)cc1 [Example 31, 4-(4-fluorophenyl)-5-[4-(methylsulfonyl)-phenyl]-2-[(4-fluorophenoxy)methyl]oxazole]	5	
< 100	9.7	COc1nc(-c2ccccc2)c(-c2ccc(S(N)(=O)=O)cc2)o1 [Example 55, 4-[2-methoxy-4-phenyl-5-oxazolyl]benzenesulfonamide]		RAT PAW EDEMA % Inhibition (1 @ 30 mg/kg body weight) (carrageenan foot edema): 37%
< 100	> 100	COc1ccc(-c2oc(C(F)(F)F)nc2-c2ccc(S(C)(=O)=O)cc2)cc1F [Example 70, 5-(3-fluoro-4-methoxyphenyl)-4-(4-methylsulfonylphenyl)-2-trifluoromethyloxazole]		RAT PAW EDEMA % Inhibition (1 @ 30 mg/kg body weight) (carrageenan foot edema): 46%
< 100	47.5	COCc1nc(-c2ccccc2)c(-c2ccc(S(N)(=O)=O)cc2)o1 [Example 73, 4-[2-methoxymethyl-4-phenyl-oxazolyl]benzenesulfonamide]		
< 100	> 100	NS(=O)(=O)c1ccc(-c2oc(CO)nc2-c2ccccc2)cc1 [Example 75, 4-[2-hydroxymethyl-4-phenyl-5-oxazolyl]benzenesulfonamide]		

Structure (SMILES)	IC50 (COX-2) [nM]	IC50 (COX-1) [µM]	inhibition in vivo at 10 mg/kg (carrageenan foot edema) [%]	further results
CS(=O)(=O)c1ccc(-c2oc(CCc3ccccc3)nc2-c2ccc(F)cc2)cc1 [Example 1, 4-(4-fluorophenyl)-2-(2-phenylethyl)-5-(4-(methylsulfonyl)phenyl)oxazole]	< 100	6.9		RAT PAW EDEMA % Inhibition (* @ 20 mg/kg body weight) (carrageenan foot edema; 20 mg/kg body weight): 41%; ANALGESIA % Inhibition @ 20 mg/kg body weight [1]: 44%
